Assay results taken from ChEMBL document CHEMBL4052642, “4-Methyl-6,7-dihydro-4H-triazolo[4,5-c]pyridine-Based P2X7 Receptor Antagonists: Optimization of Pharmacokinetic Properties Leading to the Identification of a Clinical Candidate” (J Med Chem, 2017).
≈ marks a conversion by molar mass, not a printed value. Calls of active or inactive are those of the source. The calls are words filed in the database; no cut-off is given here.

Key:
[1] = tested on: Liver; assay: Metabolic stability in mouse liver microsomes at 1 uM after 5 to 60 mins by LC-MS/MS analysis; format: ADME, microsome
[2] = tested on: Rattus norvegicus; assay: Ex vivo receptor occupancy at P2X7 in Sprague-Dawley rat brain at 10 mg/kg, po after 24 hrs by autoradiography; format: functional
[3] = Antagonist activity at dog P2X7 assessed as inhibition of BzATP-induced calcium flux preincubated for 30 mins followed by BzATP addition measured over 180 secs by FLIPR assay; design: species or system Canis lupus familiaris
[4] = molecular target: P2X purinoceptor 2 (Homo sapiens) (UniProt Q9UBL9); assay: Antagonist activity at P2X2 (unknown origin) assessed as inhibition of BzATP-induced calcium flux up to 10 uM preincubated for 30 mins followed by BzATP addition measured over 180 secs by FLIPR assay
Sequence of P2X purinoceptor 2 (Homo sapiens) (Q9UBL9 whole entry): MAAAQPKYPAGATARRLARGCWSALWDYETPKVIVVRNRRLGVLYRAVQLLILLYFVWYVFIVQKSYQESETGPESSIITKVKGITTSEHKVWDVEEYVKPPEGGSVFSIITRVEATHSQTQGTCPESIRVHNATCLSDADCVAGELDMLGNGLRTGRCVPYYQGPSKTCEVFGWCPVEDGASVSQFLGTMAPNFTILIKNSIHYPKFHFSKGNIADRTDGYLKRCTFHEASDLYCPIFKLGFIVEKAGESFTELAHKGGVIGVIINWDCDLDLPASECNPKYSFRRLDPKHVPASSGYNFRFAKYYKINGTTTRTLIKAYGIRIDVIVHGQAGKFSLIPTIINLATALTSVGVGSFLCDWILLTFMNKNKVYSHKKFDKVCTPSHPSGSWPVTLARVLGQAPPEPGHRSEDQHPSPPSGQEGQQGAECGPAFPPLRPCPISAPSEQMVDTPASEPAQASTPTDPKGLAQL

[5] = Clearance in cynomolgus monkey at 1 mg/kg, iv or 5 mg/kg, po by LC-MS/MS analysis; format: ADME, organism-based, Macaca fascicularis; details: in vivo
[6] = Protein binding in rat plasma at 1 uM after 6 hrs by equilibrium dialysis method; format: ADME, cell-free; details: read-out: PPB (converted)
[7] = tested on: Rattus norvegicus; assay: Drug uptake in rat at 62.5 to 250 mg/kg administered via oral gavage on day 1 and day 4; format: ADME, organism-based; details: in vivo
[8] = molecular target: P2X purinoceptor (Macaca mulatta, UniProt G7N604); assay: Antagonist activity at macaque P2X7 assessed as inhibition of BzATP-induced calcium flux preincubated for 30 mins followed by BzATP addition measured over 180 secs by FLIPR assay
Sequence of P2X purinoceptor (G7N604 whole entry): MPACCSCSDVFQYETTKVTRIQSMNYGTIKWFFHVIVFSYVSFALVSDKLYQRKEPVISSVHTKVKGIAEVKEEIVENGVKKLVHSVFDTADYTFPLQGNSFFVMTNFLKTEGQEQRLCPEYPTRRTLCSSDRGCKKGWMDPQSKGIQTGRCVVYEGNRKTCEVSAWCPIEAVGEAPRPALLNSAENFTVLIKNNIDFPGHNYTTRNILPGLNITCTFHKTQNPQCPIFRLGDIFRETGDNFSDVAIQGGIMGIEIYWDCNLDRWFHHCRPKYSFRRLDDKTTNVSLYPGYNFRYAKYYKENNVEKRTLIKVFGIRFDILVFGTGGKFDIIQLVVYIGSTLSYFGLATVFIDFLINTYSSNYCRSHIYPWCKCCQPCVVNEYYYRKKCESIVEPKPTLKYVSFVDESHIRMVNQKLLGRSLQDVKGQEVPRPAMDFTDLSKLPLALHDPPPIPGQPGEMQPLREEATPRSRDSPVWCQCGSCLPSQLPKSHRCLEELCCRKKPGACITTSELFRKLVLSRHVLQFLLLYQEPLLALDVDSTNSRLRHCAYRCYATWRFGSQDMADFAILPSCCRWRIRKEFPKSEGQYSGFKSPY

[9] = Solubility of compound in phosphate buffer at pH 2 after 3 days; format: physicochemical
[10] = Volume of distribution at steady state in cynomolgus monkey at 1 mg/kg, iv or 5 mg/kg, po by LC-MS/MS analysis; format: ADME, organism-based, Macaca fascicularis; details: in vivo, read-out: Vdss
[11] = Oral bioavailability in Sprague-Dawley rat at 5 mg/kg by LC-MS/MS analysis; format: ADME, organism-based; details: in vivo
[12] = tested on: Canis familiaris; assay: Drug uptake in dog at 30 to 300 mg/kg administered via oral gavage on day 1 and day 5; format: ADME, organism-based, Canis lupus familiaris; details: in vivo
[13] = tested on: Liver; assay: Metabolic stability in rat liver microsomes at 1 uM after 5 to 60 mins by LC-MS/MS analysis; format: ADME, microsome
[14] = Protein binding in human plasma at 1 uM after 6 hrs by equilibrium dialysis method; format: ADME, cell-free; details: read-out: PPB (converted)
[15] = Apparent permeability across basolateral to apical side in human Caco2 cells; format: ADME, cell-based; details: Caco-2
[16] = tested on: Canis familiaris; assay: Toxicity in dog at 30 to 300 mg/kg administered via oral gavage on day 1 and day 5 by histopathological method; format: organism-based, Canis lupus familiaris; details: in vivo
[17] = tested on: Liver; assay: Metabolic stability in human liver microsomes at 1 uM after 5 to 60 mins by LC-MS/MS analysis; format: ADME, microsome
[18] = tested on: Rattus norvegicus; assay: Ex vivo receptor occupancy at P2X7 in po dosed Sprague-Dawley rat brain assessed as plasma concentration required to achieve EC50 after 60 mins by autoradiography; format: functional, organism-based
[19] = molecular target: P2X purinoceptor 7 (Mus musculus, UniProt Q9Z1M0); assay: Antagonist activity at P2X7 in mouse whole blood assessed as inhibition of BzATP-induced IL-1beta release preincubated for 30 mins followed by BzATP addition measured after […] by ELISA
Sequence of P2X purinoceptor 7 (Q9Z1M0 whole entry): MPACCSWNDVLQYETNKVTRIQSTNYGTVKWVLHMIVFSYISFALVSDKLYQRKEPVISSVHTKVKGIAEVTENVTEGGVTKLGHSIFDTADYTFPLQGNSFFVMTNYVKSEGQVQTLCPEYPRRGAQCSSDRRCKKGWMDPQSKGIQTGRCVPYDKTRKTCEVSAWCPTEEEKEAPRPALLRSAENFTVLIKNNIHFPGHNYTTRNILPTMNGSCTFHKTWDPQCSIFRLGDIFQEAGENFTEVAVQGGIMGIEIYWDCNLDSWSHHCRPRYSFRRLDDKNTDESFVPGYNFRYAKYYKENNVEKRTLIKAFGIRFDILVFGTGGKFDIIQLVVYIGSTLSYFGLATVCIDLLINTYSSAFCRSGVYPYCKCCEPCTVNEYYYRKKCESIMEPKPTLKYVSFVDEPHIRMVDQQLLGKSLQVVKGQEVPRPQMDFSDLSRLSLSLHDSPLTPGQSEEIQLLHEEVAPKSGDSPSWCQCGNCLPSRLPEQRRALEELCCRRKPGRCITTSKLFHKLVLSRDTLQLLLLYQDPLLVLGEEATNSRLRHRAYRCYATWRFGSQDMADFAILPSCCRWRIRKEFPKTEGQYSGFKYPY

C[C@@H]1c2nnn(-c3ncc(F)cn3)c2CCN1C(=O)c1cccc(C(F)(F)F)c1Cl [JNJ-54175446]
Stability [1]: Stable
Occ [2]: >80%
pIC50 [3]: 7.9
inhibition [4]: inactive
clearance [5]: 4.4 mL/min/kg
fraction unbound at 6 h, 1 µM [6]: 0.122
Drug uptake [7]: Active
IC50 [8]: 7.94 nM
solubility at 72 h [9]: 38.7 µM (≈ 17.1 µg/mL)
Vd [10]: 2.1 L/kg
bioavailability [11]: 96%
Drug uptake [12]: Active
Stability [13]: Stable
fraction unbound at 6 h, 1 µM [14]: 0.112
Papp B→A [15]: 48.8 ×10⁻⁶ cm/s
Activity [16]: Non-Toxic
Stability [17]: Stable
Cp [18]: 105 ng/mL
IC50 [19]: 31.6 nM
